Measurements from patent publication US6649654B1, “Methods for identifying and using IKK inhibitors” (The Regents of the University of California, priority 1999, dated 2003).
Entries after “also recorded” stand apart in the source; their conditions may differ.

Columns and labels:
NF-κB = NF-κB activation by TPA in human cells expressing very low levels of PPAR-γ; assay type: cell-based; conditions: human cells with very low PPAR-γ, data not shown
wild-type IKKβ = test: 2XNFκB-LUC reporter in HeLa cells with NIK and wild-type IKKβ; assay type: cell-based; conditions: luciferase at 24 hours, FIG. 6E
Procedure: Recombinant IKKβ(C179A) was also resistant to concentrations of 15dPGJ2 that were inhibitory to wild-type IKKβ (as shown in FIG. 6D), and also to PGA1. An NF-κB dependent transcriptional reporter (2XNFκB-LUC) was preincubated with expression vector encoding either wild-type IKKβ or IKKβ(C179A). A NIK expression vector was included to ensure maximal IKK activation. […] FIG. 6E provides the results for HeLa cells transiently transfected with a 2×NF-κB-LUC reporter, a NIK expression vector and expression vectors for wild type IKKβ or IKKβ(C179A). At 3 hours post-transfection, cells were treated with 15dPGJ2 and at 24 hours, the luciferase activities were determined for duplicate samples. In each case, the maximal activity achieved in the absence of inhibitor was given an arbitrary value of 100% and the other values were calculated relative to this one.

[1] = tested on: carrageenin-induced pleurisy; conditions: rats, endogenous and exogenous 15dPGJ2; Gilroy et al.; cited from earlier work
JNK = JNK (Homo sapiens, UniProt P45983); test: JNK activity in HeLa cells; assay type: cell-based; parameters: endogenous in cells; conditions: even in the absence of TNFα
Sequence of JNK (P45983 whole entry): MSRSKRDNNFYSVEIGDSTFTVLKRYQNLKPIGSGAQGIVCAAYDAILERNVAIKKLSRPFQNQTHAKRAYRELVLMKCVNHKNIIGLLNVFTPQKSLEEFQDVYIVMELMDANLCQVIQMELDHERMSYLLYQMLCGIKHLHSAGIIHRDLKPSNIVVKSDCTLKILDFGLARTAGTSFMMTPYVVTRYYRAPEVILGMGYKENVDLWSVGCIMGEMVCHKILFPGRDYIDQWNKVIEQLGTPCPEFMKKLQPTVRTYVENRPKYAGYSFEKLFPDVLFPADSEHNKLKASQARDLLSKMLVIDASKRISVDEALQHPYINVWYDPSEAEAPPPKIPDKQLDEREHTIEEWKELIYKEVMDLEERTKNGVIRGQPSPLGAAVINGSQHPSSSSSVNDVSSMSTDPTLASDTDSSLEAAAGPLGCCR
Procedure: (§1) Cells used in the experiments described herein were cultured in either RPMI 1640 (Jurkat cells) or DMEM (HeLa and COS cells), supplemented with 10% FBS and antibiotics. Cells were stimulated with either 25 ng/ml TPA, 20 ng/ml recombinant TNFα, or 10 ng/ml interleukin 1β (Sigma). PGA1, 15dPGJ2, T×B2, LTB4, AA and other PGs (Cayman) dissolved in ethanol were used as well, as known in the art (See e.g., Rossi et al., 94:746-750 [1997]). Controls received equal amounts of ethanol. Transfections were performed using Lipofectamine Plus (GIBCO) for HeLa and COS cells and DEAE-dextran (Sigma) for Jurkat cells. Xpress-tagged NIK, Xpress-tagged MEKK1, HA-tagged IKKα, and HA-tagged IKKβ were also used (See e.g., Zandi et al., Science 281:1360-1363 [1998]; and Delhase et al., Science 284:309-313 [1999]). COX2 and cPLA2 expression vectors were obtained from Dr. L. Feng (See also, Hirose et al., J. Am. Soc. Nephrol., 9:408-416 [1998]). PGD synthase was cloned from HT29 colon carcinoma cell line cDNA by PCR and subcloned into a pCDNA3 vector. […]
(§2) Cell lysates were incubated with anti-IKKα (Pharmingen), anti-HA (12CA5; Pharmingen), anti-JNK1 (333.8; Pharmingen), or anti-p38 (New England Biolabs) for 2 hours. […] Endogenous IKK, HA-tagged IKKα, endogenous JNK1, and p38 activities were determined with GST-1κBα(1-54), GST-c-Jun(1-79), and GST-ATF2 as substrates.

IKK [2] = test: MEKK1-induced IKK activity in COS cells; assay type: cell-based; conditions: data not shown
Procedure: as §1, §2

IKK [3] = biological target: IKK (Homo sapiens, UniProt O14920+O15111); test: Endogenous IKK activity (kinase assay) in Jurkat cells stimulated with TNFα or TPA; assay type: cell-based; parameters: endogenous in cells
Sequence of IKK (Homo sapiens, UniProt O14920+O15111) (O14920 whole entry): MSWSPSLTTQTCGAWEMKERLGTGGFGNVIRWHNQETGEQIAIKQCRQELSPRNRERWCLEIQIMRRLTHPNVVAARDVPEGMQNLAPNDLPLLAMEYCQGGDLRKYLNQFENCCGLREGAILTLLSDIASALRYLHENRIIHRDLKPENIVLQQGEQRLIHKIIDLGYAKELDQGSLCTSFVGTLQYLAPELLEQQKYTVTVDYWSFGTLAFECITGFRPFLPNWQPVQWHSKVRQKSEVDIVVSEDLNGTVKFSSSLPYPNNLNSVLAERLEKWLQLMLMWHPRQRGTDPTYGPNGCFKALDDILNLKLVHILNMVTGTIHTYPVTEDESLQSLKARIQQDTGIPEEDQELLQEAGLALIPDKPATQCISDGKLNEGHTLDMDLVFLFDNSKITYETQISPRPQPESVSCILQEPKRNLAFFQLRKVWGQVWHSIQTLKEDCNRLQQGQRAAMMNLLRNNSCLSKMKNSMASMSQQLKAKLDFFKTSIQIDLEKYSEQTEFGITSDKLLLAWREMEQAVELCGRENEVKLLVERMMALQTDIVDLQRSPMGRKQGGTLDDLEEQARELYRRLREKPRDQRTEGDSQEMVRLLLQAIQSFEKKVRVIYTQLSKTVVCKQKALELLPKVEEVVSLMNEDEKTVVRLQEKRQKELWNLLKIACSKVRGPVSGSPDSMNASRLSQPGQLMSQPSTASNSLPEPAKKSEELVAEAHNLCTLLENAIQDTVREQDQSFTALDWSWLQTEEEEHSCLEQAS
Sequence of IKK (Homo sapiens, UniProt O14920+O15111) (O15111 whole entry): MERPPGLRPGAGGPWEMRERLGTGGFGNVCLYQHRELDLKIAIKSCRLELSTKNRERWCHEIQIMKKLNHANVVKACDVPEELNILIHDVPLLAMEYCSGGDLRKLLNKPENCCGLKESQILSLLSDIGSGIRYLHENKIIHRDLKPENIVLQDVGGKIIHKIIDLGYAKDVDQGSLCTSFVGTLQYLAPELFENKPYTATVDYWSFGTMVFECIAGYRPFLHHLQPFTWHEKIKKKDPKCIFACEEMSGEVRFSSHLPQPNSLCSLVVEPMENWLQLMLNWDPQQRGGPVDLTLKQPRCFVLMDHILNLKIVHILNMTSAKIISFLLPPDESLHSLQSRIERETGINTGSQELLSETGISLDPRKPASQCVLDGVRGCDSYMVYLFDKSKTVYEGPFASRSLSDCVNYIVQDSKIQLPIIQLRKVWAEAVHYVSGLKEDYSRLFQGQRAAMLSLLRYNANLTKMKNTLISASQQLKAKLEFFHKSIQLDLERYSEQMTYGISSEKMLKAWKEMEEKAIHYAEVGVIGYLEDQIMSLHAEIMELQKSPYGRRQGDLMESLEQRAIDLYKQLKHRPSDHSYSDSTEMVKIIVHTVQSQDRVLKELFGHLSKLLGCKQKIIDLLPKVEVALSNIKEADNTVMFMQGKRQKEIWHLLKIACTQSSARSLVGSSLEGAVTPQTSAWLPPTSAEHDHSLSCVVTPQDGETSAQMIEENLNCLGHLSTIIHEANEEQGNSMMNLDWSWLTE
Sequence of IKK (Homo sapiens, UniProt O14920+O15111) (Q9Y6K9 whole entry partner): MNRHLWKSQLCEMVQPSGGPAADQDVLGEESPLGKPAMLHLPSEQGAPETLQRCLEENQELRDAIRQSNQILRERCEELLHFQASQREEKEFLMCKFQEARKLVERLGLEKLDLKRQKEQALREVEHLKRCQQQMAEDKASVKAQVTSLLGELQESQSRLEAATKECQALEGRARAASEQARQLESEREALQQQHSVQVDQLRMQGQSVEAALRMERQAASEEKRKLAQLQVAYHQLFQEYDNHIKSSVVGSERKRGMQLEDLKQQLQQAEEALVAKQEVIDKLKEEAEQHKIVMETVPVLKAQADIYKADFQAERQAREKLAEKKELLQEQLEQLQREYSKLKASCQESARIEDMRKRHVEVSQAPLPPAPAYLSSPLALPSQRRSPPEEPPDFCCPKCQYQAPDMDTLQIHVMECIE
Procedure: as §1
(§3) Cell lysates were incubated with anti-IKKα (Pharmingen), anti-HA (12CA5; Pharmingen), anti-JNK1 (333.8; Pharmingen), or anti-p38 (New England Biolabs) for 2 hours. […] Endogenous IKK, HA-tagged IKKα, endogenous JNK1, and p38 activities were determined with GST-1κBα(1-54), GST-c-Jun(1-79), and GST-ATF2 as substrates. […]

p38 = p38 (Homo sapiens, UniProt Q16539); test: p38 MAP kinase activation in TPA-stimulated Jurkat cells; assay type: cell-based; parameters: endogenous in cells; host or cells: Jurkat; conditions: 24 μM PGA1, TPA
Sequence of p38 (Q16539 whole entry): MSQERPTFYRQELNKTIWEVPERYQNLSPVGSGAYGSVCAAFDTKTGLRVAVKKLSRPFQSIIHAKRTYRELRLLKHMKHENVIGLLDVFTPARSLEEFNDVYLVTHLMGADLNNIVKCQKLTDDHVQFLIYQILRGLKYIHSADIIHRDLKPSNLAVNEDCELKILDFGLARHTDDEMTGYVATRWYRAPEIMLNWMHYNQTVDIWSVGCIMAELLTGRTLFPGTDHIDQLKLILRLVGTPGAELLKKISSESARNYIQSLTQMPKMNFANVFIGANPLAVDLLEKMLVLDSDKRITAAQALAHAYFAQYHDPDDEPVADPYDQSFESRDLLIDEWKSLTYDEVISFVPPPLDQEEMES
Procedure: as §1, §3

Compound | inhibition of NF-κB activation by TPA (NF-κB) | sensitivity of NF-κB transcriptional activity through wild-type IKKβ (wild-type IKKβ) | anti-inflammatory effect [1] | effect on JNK activity (JNK) | effect on MEKK1-induced IKK activity (IKK [2]) | effect on IKK activity (IKK [3]; 24 μM PGA1 2 hours, TNFα or TPA) | effect on IKK activity after 15 minute exposure (IKK [3]; 15-min exposure, TPA 15 minutes) | effect on activation of p38 MAP kinase (p38)
CCCCC/C=C/C=C1/C(=O)C=C[C@@H]1C/C=C\CCCC(=O)O [15dPGJ2, 15-deoxy-Δ^12-14-PGJ2] | potent inhibitor | highly sensitive | anti-inflammatory effect | stimulated |  |  |  | 
CCCCC[C@H](O)/C=C/[C@H]1C=CC(=O)C1CCCCCCC(=O)O (some centres unmarked) [PGA1, prostaglandin A1] |  |  |  |  | inhibited | inhibit IKK activity; also recorded: inhibited | partially inhibit | did not inhibit
